Laboratory results taken from patent US20070059708A1, “Gene screen” (priority 2003, published 2007).

System: HT29 cells
Assay: Optimisation of HT29 cell growth in butyrate as sole extraneous carbon source (cell counts)
Assay type: cell-based, human
Conditions: HT29 colon carcinoma cells, DMEM without glucose, multiple concentrations compared
Description: We have compared the expression profiles of colon cells growing in either glucose or butyrate as a carbon source. HT 29 colon carcinoma cells were cultured in DMEM medium (Gibco) in the presence of 10% foetal calf serum, penicillin and streptomycin. Cells were either cultured in glucose alone as the sole carbon source, or in butyrate as the sole extraneous provided carbon source. […] Cells were cultured in either medium for multiple passages (typically 4). RNA was extracted from cells grown in each condition and used to probe an Affymetrix human 12 k array. The expression profile of cells cultured in each condition was compared and genes altered in expression by more than 2 fold are listed in Table 2.
HT29 cells were seeded out into 19 wells (in 6 well plates) at a cell density of 0.5×10^6 cells per well (i.e. 500 000 cells per well) deduced with the aid of a Haemocytometer (Improved Neubauer). These cells were taken from T75-0.2 mM butyrate (NaB) DMEM flasks and allowed to adhere to the 6-well plates over 72 hrs also in 0.2 mM NaB DMEM with FCS and Penicillin/Streptomycin antibiotics. […]

## CCCC(=O)[O-].[Na+] [butyrate, Sodium Butyrate]
  butyrate concentration optimal for cell culture: 2 mM
